Test results published in patent US10189826B2, “Heterocyclic compounds and methods of use” (Medivation Technologies LLC, priority 2015, dated 2019).
Like-named read-outs stand apart in the source and are kept apart here.

Key:
[1] = tested on: SREBP-2 transcriptional activity (SREBP2 cleavage) in HepG2_LSSprom cells; test: Luciferase reporter driven by a SREBP-2 specific promoter in HepG2_LSSprom cells; type: cell-based; settings: 24 h, read-out: SREBP2 Cleavage (IC50 μM) 24 h
In short: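 HepG2_LSSprom cells dosed at 0.625-10 μM in serum-free medium for 6 h (or 24 h), then luciferase luminescence read. Signal normalized to vehicle (100%); IC50 by four-parameter nonlinear fit; five independent experiments, triplicate wells.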

[2] = Cytotoxicity assay (LDH release) in HepG2_LSSprom cells; type: cell-based; settings: human, HepG2 LSSprom cells, 24 h treatment, LDH release
In short: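 HepG2_LSSprom cells exposed to compound at 0.625–10 μM in serum-free medium for 6 h or 24 h. Medium LDH measured colorimetrically at 490 nm; release expressed as % of lysis control after vehicle subtraction, negatives set to 0; five independent experiments, triplicate wells, mean±SEM.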

[3] = 24 h treatment, HepG2_LSSprom cells

Structure (SMILES): CC(C)(C)OC(=O)N1CCCC(NC(=O)c2ccc(-c3csc(-c4ccnc(C(C)(C)C)c4)c3)c(Cl)c2)C1 (stereo not drawn) [Compound 71, tert-butyl 3-{4-[5-(2-tert-butylpyridin-4-yl)thiophen-3-yl]-3-chlorobenzamido}piperidine-1-carboxylate]
- IC50 [1, 3]: 0.34 µM
- IC50 at 24 h [2]: > 10 µM

Structure (SMILES): CC(C)(C)c1cc(-c2cc(-c3ccc(C(=O)N4CCC(N)CC4)cc3Cl)cs2)ccn1 [Compound 72, 1-{4-[5-(2-tert-butylpyridin-4-yl)thiophen-3-yl]-3-chlorobenzoyl}piperidin-4-amine]
- IC50 [1, 3]: > 10 µM
- IC50 at 24 h [2]: > 10 µM

Structure (SMILES): CC(C)(C)c1cc(-c2csc(-c3ccc(C(=O)N(CCC(=O)O)c4ccc(F)cc4)cc3Cl)c2)ccn1 [Compound 73, 3-(N-[4-[4-(2-tert-butyl-4-pyridyl)-2-thienyl]-3-chloro-benzoyl]-4-fluoro-anilino)propanoic acid]
- IC50 [1]: > 3 µM
- IC50 at 24 h [2]: > 10 µM

Structure (SMILES): CC(C)(C)c1cc(-c2csc(-c3ccc(C(=O)N4CCC[C@@H](N)C4)cc3Cl)c2)ccn1 [Compound 74a, (R)-(3-aminopiperidin-1-yl)(4-(4-(2-(tert-butyl)pyridin-4-yl)thiophen-2-yl)-3-chlorophenyl)methanone]
- IC50 [1, 3]: 0.74 µM
- IC50 at 24 h [2]: > 10 µM

Structure (SMILES): CC(C)(C)c1cc(-c2csc(-c3ccc(C(=O)N4CCC[C@H](N)C4)cc3Cl)c2)ccn1 [Compound 74b, (3S)-1-{4-[4-(2-tert-butylpyridin-4-yl)thiophen-2-yl]-3-chlorobenzoyl}piperidin-3-amine]
- IC50 [1, 3]: 0.51 µM
- IC50 at 24 h [2]: > 10 µM

Structure (SMILES): CNC1CCCN(C(=O)c2ccc(-c3csc(-c4ccnc(C(C)(C)C)c4)c3)c(Cl)c2)C1 (stereo not drawn) [Compound 75, 1-{4-[5-(2-tert-butylpyridin-4-yl)thiophen-3-yl]-3-chlorobenzoyl}-N-methylpiperidin-3-amine]
- IC50 [1, 3]: 3.2 µM
- IC50 at 24 h [2]: > 10 µM

Structure (SMILES): CC(C)(C)C(=O)NC1CCN(C(=O)c2ccc(-c3csc(-c4ccnc(C(C)(C)C)c4)c3)c(Cl)c2)CC1 [Compound 76, N-(1-{4-[5-(2-tert-butylpyridin-4-yl)thiophen-3-yl]-3-chlorobenzoyl}piperidin-4-yl)-2,2-dimethylpropanamide]
- IC50 [1, 3]: 1.6 µM
- IC50 at 24 h [2]: > 10 µM

Structure (SMILES): Cc1sc(-c2ccc(C(=O)N3CCNC(=O)C3)cc2Cl)cc1-c1ccnc(C(C)(C)C)c1 [Compound 77, 4-{4-[4-(2-tert-butylpyridin-4-yl)-5-methylthiophen-2-yl]-3-chlorobenzoyl}piperazin-2-one]
- IC50 [1, 3]: 2.3 µM
- IC50 at 24 h [2]: > 10 µM

Structure (SMILES): CC(C)(C)OC(=O)N1CCC(NC(=O)c2ccc(-c3csc(-c4ccnc(C(C)(C)C)c4)c3)c(Cl)c2)CC1 [Compound 78, tert-butyl 4-{4-[5-(2-tert-butylpyridin-4-yl)thiophen-3-yl]-3-chlorobenzamido}piperidine-1-carboxylate]
- IC50 [1, 3]: 0.2 µM
- IC50 at 24 h [2]: > 10 µM

Structure (SMILES): Cc1sc(-c2ccc(C(=O)N3CCC[C@@H](NC(=O)OC(C)(C)C)C3)cc2Cl)cc1-c1ccnc(C(C)(C)C)c1 [Compound 79a, tert-butyl N-[(3R)-1-{4-[4-(2-tert-butylpyridin-4-yl)-5-methylthiophen-2-yl]-3-chlorobenzoyl}piperidin-3-yl]carbamate]
- IC50 [1, 3]: 0.29 µM
- IC50 at 24 h [2]: > 10 µM

Structure (SMILES): Cc1sc(-c2ccc(C(=O)N3CCC[C@H](NC(=O)OC(C)(C)C)C3)cc2Cl)cc1-c1ccnc(C(C)(C)C)c1 [Compound 79b, tert-butyl N-[(3S)-1-{4-[4-(2-tert-butylpyridin-4-yl)-5-methylthiophen-2-yl]-3-chlorobenzoyl}piperidin-3-yl]carbamate]
- IC50 [1, 3]: 0.52 µM
- IC50 at 24 h [2]: > 10 µM

Structure (SMILES): CC(C)(C)c1cc(-c2cc(-c3ccc(C(=O)N4CCCC(NCc5ccc(Cl)cc5)C4)cc3Cl)cs2)ccn1 (stereo not drawn) [Compound 80, 1-{4-[5-(2-tert-butylpyridin-4-yl)thiophen-3-yl]-3-chlorobenzoyl}-N-[(4-chlorophenyl)methyl]piperidin-3-amine]
- IC50 [1, 3]: 0.06 µM
- IC50 at 24 h [2]: > 10 µM

Structure (SMILES): CC(C)(C)c1cc(-c2cc(-c3ccc(C(=O)N4CCC[C@@H](NCc5ccc(Cl)cc5)C4)cc3Cl)cs2)ccn1 [Compound 80a, (R)-(4-(5-(2-(tert-butyl)pyridin-4-yl)thiophen-3-yl)-3-chlorophenyl)(3-((4-chlorobenzyl)amino)piperidin-1-yl)methanone]
- IC50 [1, 3]: 0.095 µM
- IC50 at 24 h [2]: > 10 µM

Structure (SMILES): CC(C)(C)c1cc(-c2cc(-c3ccc(C(=O)N4CCC[C@H](NCc5ccc(Cl)cc5)C4)cc3Cl)cs2)ccn1 [Compound 80b, (S)-(4-(5-(2-(tert-butyl)pyridin-4-yl)thiophen-3-yl)-3-chlorophenyl)(3-((4-chlorobenzyl)amino)piperidin-1-yl)methanone]
- IC50 [1, 3]: 0.04 µM
- IC50 at 24 h [2]: > 10 µM

Structure (SMILES): CC(C)(C)c1cc(-c2cc(-c3ccc(C(=O)N4CCCC(NCc5cccc(Cl)c5)C4)cc3Cl)cs2)ccn1 (stereo not drawn) [Compound 81, 1-{4-[5-(2-tert-butylpyridin-4-yl)thiophen-3-yl]-3-chlorobenzoyl}-N-[(3-chlorophenyl)methyl]piperidin-3-amine]
- IC50 [1, 3]: 0.14 µM
- IC50 at 24 h [2]: > 10 µM

Structure (SMILES): CC(C)(C)c1cc(-c2cc(-c3ccc(C(=O)N4CCC(O)C4)cc3Cl)cs2)ccn1 (stereo not drawn) [Compound 82, [4-[5-(2-tert-butyl-4-pyridyl)-3-thienyl]-3-chloro-phenyl]-(3-hydroxypyrrolidin-1-yl)methanone]
- IC50 [1, 3]: 0.5 µM
- IC50 at 24 h [2]: > 10 µM

Structure (SMILES): CC(C)(C)c1cc(-c2cc(-c3ccc(C(=O)N4CCCC5(CCNC5=O)C4)cc3Cl)cs2)ccn1 (stereo not drawn) [Compound 83, 7-{4-[5-(2-tert-butylpyridin-4-yl)thiophen-3-yl]-3-chlorobenzoyl}-2,7-diazaspiro[4.5]decan-1-one]
- IC50 [1, 3]: 0.47 µM
- IC50 at 24 h [2]: > 10 µM

Structure (SMILES): CC(C)(C)c1cc(-c2cc(-c3ccc(C(=O)N4CCN5CCCC5C4)cc3Cl)cs2)ccn1 (stereo not drawn) [Compound 84, 2-tert-butyl-4-[4-(2-chloro-4-{octahydropyrrolo[1,2-a]piperazine-2-carbonyl}phenyl)thiophen-2-yl]pyridine]
- IC50 [1, 3]: > 3 µM
- IC50 at 24 h [2]: > 10 µM

Structure (SMILES): CC(C)(C)c1cc(-c2nc(-c3ccc(C(=O)N4CCCC(N)C4)cc3Cl)c[nH]2)ccn1 (stereo not drawn) [Compound 85, 1-{4-[2-(2-tert-butylpyridin-4-yl)-1H-imidazol-4-yl]-3-chlorobenzoyl}piperidin-3-amine]
- IC50 [1]: > 3 µM
- IC50 at 24 h [2]: > 10 µM

Structure (SMILES): CC(C)(C)c1cc(-c2csc(-c3ccc(C(=O)N4CCC(O)CC4)cc3Cl)c2)ccn1 [Compound 86, 1-{4-[4-(2-tert-butylpyridin-4-yl)thiophen-2-yl]-3-chlorobenzoyl}piperidin-4-ol]
- IC50 [1, 3]: 0.06 µM
- IC50 at 24 h [2]: > 10 µM

Structure (SMILES): Cc1sc(-c2ccc(C(=O)N3CCC[C@H](N)C3)cc2Cl)cc1-c1ccnc(C(C)(C)C)c1 [Compound 87a, (3S)-1-{4-[4-(2-tert-butylpyridin-4-yl)-5-methylthiophen-2-yl]-3-chlorobenzoyl}piperidin-3-amine]
- IC50 [1, 3]: > 10 µM
- IC50 at 24 h [2]: > 10 µM

Structure (SMILES): Cc1sc(-c2ccc(C(=O)N3CCC[C@@H](N)C3)cc2Cl)cc1-c1ccnc(C(C)(C)C)c1 [Compound 87b, (3R)-1-{4-[4-(2-tert-butylpyridin-4-yl)-5-methylthiophen-2-yl]-3-chlorobenzoyl}piperidin-3-amine]
- IC50 [1, 3]: > 10 µM
- IC50 at 24 h [2]: > 10 µM

Structure (SMILES): CC(C)(C)c1cc(-c2csc(-c3ccc(C(=O)N4CCC(C(=O)O)CC4)cc3Cl)c2)ccn1 [Compound 88, 1-{4-[4-(2-tert-butylpyridin-4-yl)thiophen-2-yl]-3-chlorobenzoyl}piperidine-4-carboxylic acid]
- IC50 [1, 3]: 2.8 µM
- IC50 at 24 h [2]: > 10 µM

Structure (SMILES): CC(C)(C)c1cc(-c2csc(-c3ccc(C(=O)N4CCCC(O)C4)cc3Cl)c2)ccn1 (stereo not drawn) [Compound 89, 1-{4-[4-(2-tert-butylpyridin-4-yl)thiophen-2-yl]-3-chlorobenzoyl}piperidin-3-ol]
- IC50 [1, 3]: 0.037 µM
- IC50 at 24 h [2]: > 10 µM

Structure (SMILES): CC(C)(C)c1cc(-c2csc(-c3ccc(C(=O)N4CCC[C@@H](O)C4)cc3Cl)c2)ccn1 [Compound 89a, (R)-(4-(4-(2-(tert-butyl)pyridin-4-yl)thiophen-2-yl)-3-chlorophenyl)(3-hydroxypiperidin-1-yl)methanone]
- IC50 [1, 3]: 0.03 µM
- IC50 at 24 h [2]: > 10 µM

Structure (SMILES): CC(C)(C)c1cc(-c2csc(-c3ccc(C(=O)N4CCC[C@H](O)C4)cc3Cl)c2)ccn1 [Compound 89b, (S)-(4-(4-(2-(tert-butyl)pyridin-4-yl)thiophen-2-yl)-3-chlorophenyl)(3-hydroxypiperidin-1-yl)methanone]
- IC50 [1, 3]: 0.02 µM
- IC50 at 24 h [2]: > 10 µM

Structure (SMILES): CC(C)(C)OC(=O)NC1CCN(C(=O)c2ccc(-c3csc(-c4ccnc(C(C)(C)C)c4)c3)c(Cl)c2)C1 (stereo not drawn) [Compound 90]
- IC50 [1, 3]: 0.37 µM
- IC50 at 24 h [2]: > 10 µM

Structure (SMILES): CC(C)(C)c1cc(-c2csc(-c3ccc(C(=O)N4CCCC(C(=O)O)C4)cc3Cl)c2)ccn1 (stereo not drawn) [Compound 91]
- IC50 [1, 3]: 0.72 µM
- IC50 at 24 h [2]: > 10 µM

Structure (SMILES): CC(C)(C)c1cc(-c2csc(-c3ccc(C(=O)N4CCc5nc[nH]c5C4)cc3Cl)c2)ccn1 [Compound 92, 2-tert-butyl-4-[5-(2-chloro-4-{3H,4H,5H,6H,7H-imidazo[4,5-c]pyridine-5-carbonyl}phenyl)thiophen-3-yl]pyridine]
- IC50 [1, 3]: 0.74 µM
- IC50 at 24 h [2]: > 10 µM

Structure (SMILES): CC(C)(C)c1cc(-c2csc(-c3ccc(C(=O)N4CCNC(=O)C4)cc3Cl)c2)ccn1 [Compound 93, 4-{4-[4-(2-tert-butylpyridin-4-yl)thiophen-2-yl]-3-chlorobenzoyl}piperazin-2-one]
- IC50 [1, 3]: 0.41 µM
- IC50 at 24 h [2]: > 10 µM
